Measurements reported in patent US20210380630A1, “Bio-catalyzed Synthesis of New Aromatase Inhibitors through Structural Modifications of Anticancer Drug Formestane” (priority 2021, published 2021).
Read-outs that look alike come from different tables or passages of the source.

Key:
[1] = target: T1, aromatase (human placental microsomes) (Homo sapiens, UniProt P11511); assay: human placental aromatase assay; type: biochemical
T1 construct: protein (2 mg) from human placental microsomes; from tissue; host or cells: human placenta (microsomal fraction)
T1 sequence (P11511 1-503): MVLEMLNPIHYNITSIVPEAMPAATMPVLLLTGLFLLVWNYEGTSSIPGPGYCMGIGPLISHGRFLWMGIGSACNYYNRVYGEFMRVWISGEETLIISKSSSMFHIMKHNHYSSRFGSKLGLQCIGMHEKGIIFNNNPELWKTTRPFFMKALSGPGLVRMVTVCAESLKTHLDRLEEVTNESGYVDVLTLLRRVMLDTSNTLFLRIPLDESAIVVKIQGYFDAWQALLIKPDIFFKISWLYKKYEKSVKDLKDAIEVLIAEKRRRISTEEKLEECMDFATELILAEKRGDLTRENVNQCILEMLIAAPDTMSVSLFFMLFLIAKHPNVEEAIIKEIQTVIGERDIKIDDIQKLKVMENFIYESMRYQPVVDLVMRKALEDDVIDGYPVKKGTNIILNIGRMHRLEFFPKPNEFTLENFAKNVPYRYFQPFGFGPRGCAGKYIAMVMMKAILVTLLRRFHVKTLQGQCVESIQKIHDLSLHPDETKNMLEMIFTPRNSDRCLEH

[2] = test system: human fibroblast (BJ) normal cell line; assay: cytotoxicity against BJ normal cell line

Structure (SMILES)	IC50 [1]	cytotoxicity to BJ normal cell line [2]	IC50 ([1]; human placental microsomes, 10 μM testosterone, estradiol by UPLC, read-out: IC50 aromatase inhibition)
C[C@]12CCC(=O)C(O)=C1CC[C@@H]1[C@@H]2CC[C@]2(C)C(=O)CC[C@@H]12 [Compound 1, Formestane]	335 ± 11 nM		
C[C@]12C=CC(=O)C(O)=C1CC[C@@H]1[C@@H]2[C@H](O)C[C@]2(C)C(=O)CC[C@@H]12 [Compound 5, 4,11α-Dihydroxyandrosta-1,4-diene-3,17-dione]	34300 ± 532 nM	non-cytotoxic	
C[C@]12CC[C@H]3[C@@H]([C@H](O)C[C@@]4(O)[C@H](O)C(=O)CC[C@]34C)[C@@H]1CCC2=O [Compound 2, 4α,5α,7α-Trihydroxyandrostane-3,17-dione]	5230 ± 94 nM		
C[C@]12CC[C@H]3[C@@H]([C@@H](O)C[C@@]4(O)C(=O)[C@@H](O)CC[C@]34C)[C@@H]1CCC2=O [Compound 4, 3β,5α,7β-Trihydroxyandrostane-4,17-dione]	386 ± 72 nM		
C[C@]12CC[C@H](O)C(=O)C1C[C@H](O)[C@@H]1[C@@H]2CC[C@]2(C)C(=O)CC[C@@H]12 (stereo partly drawn) [Compound 3, 3β,7β-Dihydroxyandrostane-4,17-dione]			1370 ± 29 nM
